Data published in paper PMC3514216, “SRC Homology 2 Domain Binding Sites in Insulin, IGF-1 and FGF receptor mediated signaling networks reveal an extensive potential interactome” (Cell Communication and Signaling : CCS, 2012).

Tested on: panel of 50 SH2 domains
Assay: SPOT peptide array probed with each of 50 GST-SH2 domains
Format: binding
Conditions: SPOT192 peptide array; for 2X < SH2 Domains < 3X: list of GST-SH2 domains with spot intensity between 2X and 3X array mean (indeterminate range); for SH2 Domains >3X: list of GST-SH2 domains with spot intensity >3X array mean (array-positive)
Description: The use of addressable peptide arrays is a reproducible and semi-quantitative approach that has been extensively validated for studying protein interactions with peptide ligands. To investigate connections between SH2 domain proteins and their putative phosphorylated docking sites on cell surface receptors, we developed addressable arrays consisting of 192 phosphotyrosine peptides. This peptide set was assembled using 71 phosphotyrosine peptide motifs corresponding to all of the cytoplasmic tyrosine residues within the FGF receptors (FGFR1-4), insulin receptor (InsR) and IGF-1 receptor (IGF-1R) (Figure 1A). Activation of these receptors results in the phosphorylation of associated scaffold proteins, and so 75 phosphotyrosine peptides corresponding to a comprehensive list of tyrosine residues within insulin receptor substrates (IRS-1 and IRS-2) and fibroblast receptor substrates (FRS-2 and FRS-3) were included. In addition, 33 phosphotyrosine peptides were incorporated from the downstream signaling proteins PLC-γ1, p130Cas (BCAR1) and p62DOK1. […] These control peptides provide a reference and establish the empirical cut-off for designated binding interactions (Table 1). No discrimination was made against peptides on the basis of reported phosphorylation state in order to examine a diverse and unbiased set of motifs. The resulting set of 192 phosphotyrosine peptides and their corresponding position in the proteins of origin is noted in Additional file 1: Table S1. Addressable arrays were synthesized as membrane-bound 11-mer peptides using the SPOT synthesis technique. While the majority of SH2 domains recognize residues C-terminal to the phosphotyrosine in their cognate peptide ligands, additional contacts between SH2 domains and residues N-terminal to the phosphotyrosine are observed for the SH2 domain of Sh2d1a (SAP) and cannot be ruled out in other cases. Peptides were synthesized with six flanking residues C-terminal to the phosphotyrosine and four residues N-terminal to the phosphotyrosine.
To assess the potential network of SH2 domain interactions we selected 50 SH2 domains representing 28 of the 38 families of SH2 domains (Figure 1B) all of which we have previously shown can be expressed and purified. These include a number of extensively studied SH2 domains (Src, Grb2, PLCγ), as well as a number of less studied SH2 domains from proteins such as Shd, She, Shf, Slnk (Sh2d6), Sh2d1a (SAP), Sh2d1b (Eat-2), and Brdg1. To address potential variability in specificity within families we employed all members from the SHB, CRK, GRB2, SRC and ABL families (families are indicated with complete Capitalized lettering).
SH2 domains were arrayed as GST fusion proteins and detected using anti-GST primary antibodies and near-infrared labeled secondary antibodies. In an effort to present a dataset with minimal false positives, we chose an empirical cutoff based on the array average across all peptide spots to classify interactions (Figure 1A). In cases where the intensity of the signal for an individual SH2-domain binding event exceeded the mean intensity of all the peptides on the membrane by three-fold were scored as “array positives” [22]. Non-binding was judged in cases where the intensity of a spot was less than the mean intensity of all spots on the membrane and these were scored as “array negatives”. Peptides with signal intensities between 1X and 3X mean were scored as “indeterminate” and ascribed as neither array positive binding interactions nor array-negative non-binders. […] This signature may be indicative of promiscuity differences between phosphopeptides or there may be a subset of peptides which interact in a nonspecific fashion with either the GST fusion tag or one of the antibodies used for detection, resulting in false positives. […]

Substance | 2X < SH2 Domains < 3X | SH2 Domains >3X
PRLEpYYESEKK [C24] | ZAP70_N | –
EQDEpYDIPRHL [H10] | ABL1, BLK, HCK, PI3K1_N, SH2D1B, SHIP1, SRC | BRK, CRK, CRKL, FGR, FYN, LCK, LYN, RIN1, SHC1, YES
PGLDpYSFDTCK [F09] | FGR, SHC1 | ABL1, CRK, CRKL, HCK, GRB7, SHIP1, SRC, ZAP70_N
NLREpYLQARRP [E08] | BCAR3, BMX, PTPN11_N, SHE | BRDG1, DAPP1, MIST, PLCG2_N, PTPN11_C, Sh2b, SHB, SHF, SHD, SYK_C, TENC1
YETDpYYRKGGK [B01] | FER, MIST, PTPN11_C, SH2D2A, SHB, SHF, SHD, SHE, SYK_C | BCAR3, BMX, BRDG1, BRK, ITK, PLCG2_N, RIN1, TENC1
DLKSpYLRSLRP [A22] | BRK, ITK, MATK, PLCG2_C, PTPN11_C, RIN1, SHD, SYK_C | BCAR3, BMX, BRDG1, FER, MIST, PLCG2_N, Sh2b, SHB, SHF, TENC1
SLDEpYTLMRAT [D14] | PI3K1_C | –
GGSPpYPGIPVE [F01] | – | ZAP70_N
HKIEpYSRRRDA [G08] | BCAR3, BMX, ITK, MIST, PLCG2_C, SHB, SYK_C | BRDG1, BRK, PLCG2_N, SHF, TENC1
KKPLpYWDLYEH [H17] | PI3K1_C, Sh2b | ABL1, BCAR3, BMX, CRKL, DAPP1, GRB7, ITK, MATK, PLCG2_N, PLCG2_C, RASA1_N, RASA1_C, SH2D2A, SH3BP2, TENC1
PRQSpYVDTSPA [C20] | – | PI3K1_C
ATDDpYAVPPPR [A02/H23] | SRC | CRK, CRKL, HCK
EDPIpYDEPEGL [H19] | BMX, LCK, LYN, YES | ABL1, BLK, HCK, NCK1, SHC1, SLNK, SRC
AACDpYESCATA [A01] | CRKL, HCK | PI3K1_C
VSCTpYQLARGM [E23] | ITK, PLCG2_C, SHB | BRDG1, MIST, PLCG2_N, SHF
GLDEpYDEVPMP [A05] | BRK, FER | NCK1
VLVEpYAAKGNL [F08] | MIST, ZAP70_N | –
SDAYpYGPEDPH [C11] | BLK, BMX, DAPP1, FYN, GRB7, LCK, LYN, PLCG2_C, RASA1_C, SH2D1B, SHC1 | –
PGLEpYCYNPSH [E09] | – | ABL1, GRB7, ZAP70_N
SVIVpYKMKSGT [E04] | BRK, FER, MIST, PTPN11_C, SHF, SHD, SYK_C | BCAR3, BMX, BRDG1, TENC1
SGTSpYGKLWTN [C08] | CRKL, DAPP1, GADS, ITK, MATK, PLCG2_C, PTPN11_N, RIN1, Sh2b, SH3BP2, SHB, SHD, SHE, YES | BCAR3, BMX, BRDG1, CRK, FER, MIST, PTPN11_C, SH2D1B, SHC1, SHF, SYK_C, TENC1
PQGLpYDLPREP [H20] | HCK | ABL1, CRK, CRKL, NCK1, ZAP70_N
EDDGpYDVPKPP [A03] | ABL1, BLK, FYN, LYN | CRK, CRKL, FGR, HCK, SHIP1, SRC, YES
